Measurements as given in patent US20110300566A1, “METHODS FOR SCREENING FOR HISTONE DEACETYLASE ACTIVITY AND FOR IDENTIFYING HISTONE DEACETYLASE INHIBITORS” (priority 2002, published 2011).
“Also recorded” adds a separate entry of the source.

Experiments:
Hos3 [1] = target: T1, Hos3 (Saccharomyces cerevisiae, UniProt Q02959); assay: Histone deacetylase fluorescent activity assay (7AC hydrolysis); type: biochemical; details: 7AC as substrate; 150 nM Hos3; pH 8.0
T1 construct: made in house; host or cells: E. coli BL21(DE3)
T1 sequence (Q02959 1-697): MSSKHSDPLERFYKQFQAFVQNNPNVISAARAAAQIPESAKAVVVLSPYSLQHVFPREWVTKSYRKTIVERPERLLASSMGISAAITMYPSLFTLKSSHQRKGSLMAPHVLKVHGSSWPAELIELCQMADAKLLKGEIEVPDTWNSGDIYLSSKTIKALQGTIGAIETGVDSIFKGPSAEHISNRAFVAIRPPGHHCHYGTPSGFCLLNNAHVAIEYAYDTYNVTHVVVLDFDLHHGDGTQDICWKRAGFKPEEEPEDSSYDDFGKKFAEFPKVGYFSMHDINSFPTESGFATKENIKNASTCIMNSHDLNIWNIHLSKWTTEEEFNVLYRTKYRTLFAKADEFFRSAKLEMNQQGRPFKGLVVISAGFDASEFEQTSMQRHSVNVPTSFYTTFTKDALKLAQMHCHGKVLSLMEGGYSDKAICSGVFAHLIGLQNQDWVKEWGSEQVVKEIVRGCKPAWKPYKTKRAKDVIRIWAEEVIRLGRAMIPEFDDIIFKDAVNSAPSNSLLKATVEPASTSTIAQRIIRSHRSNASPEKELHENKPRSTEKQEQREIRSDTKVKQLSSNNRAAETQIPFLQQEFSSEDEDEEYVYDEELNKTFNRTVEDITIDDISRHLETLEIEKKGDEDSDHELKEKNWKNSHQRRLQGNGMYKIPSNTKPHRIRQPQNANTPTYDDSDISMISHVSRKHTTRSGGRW
Description: (§1) As depicted in FIG. 1, the inventive fluorescence-based HDAC assay monitors the hydrolysis of 7AC to 7-hydroxycoumarin, or of ACC to 7-hydroxycoumarin-3-carboxylic acid, at λex=332 nm and λem=447 nm. […] Utilization rations for each enzyme with the 7AC substrate were calculated. For Hos3, the utilization ratio was 1.9122×10^−4 s^−1, and 1274.8 M^−1 s^−1 when normalized by enzyme concentration. For HDLP, the utilization ratio was 2.0375×10^−4 s^−1, and 612.8 M^−1 s^−1 when normalized by enzyme concentration. For HDAC2, the utilization ratio was 1.2526×10^−5 s^−1, and 35.8 M^−1 s^−1 when normalized by enzyme concentration, as shown in Table 1.
(§2) HDAC activity assays were performed in HDAC assay buffer (20 mM Tris, pH 8.0, 500 mM NaCl, 1 mM MnCl2) to a final reaction volume of 1 ml in quartz spectrophotometer cuvettes. Fluorescence spectrophotometry was used to monitor ACC or 7AC hydrolysis (λex=332 nm, λem=447 nm). Internal fluorescence intensity calibrations were obtained using quinine sulfate as known in the art. ACC or 7AC substrate (solubilized in 100% DMSO) was added in the appropriate concentrations to the assay buffer (1% final concentration of DMSO) and the basal rate of hydrolysis was recorded. After 90 seconds, 150 nM Hos3 enzyme was added and the reaction was allowed to proceed for 600 seconds. […] Utilization ratios for Hos3 were calculated based on the adjusted initial rates. […]

HDLP = assay: as above; type: biochemical, Aquifex aeolicus; details: 7AC as substrate; 330 nM GST-HDLP; pH 8.0
Description: as §1, §2

HDAC2 = target: T2, HDAC2 (Homo sapiens, UniProt Q92769); assay: as above; type: biochemical; details: 7AC as substrate; 350 nM GST-HDAC2; pH 8.0
T2 construct: made in house; host or cells: E. coli BL21(DE3)
Description: as §1, §2

[2] = Background (basal) rate of substrate hydrolysis in assay buffer; type: physicochemical; details: assay buffer at pH 8.0; compared with ACC
Description: as §1, §2

[3] = Solubility of substrate in assay buffer; type: physicochemical; details: HDAC assay buffer
Hos3 [4] = target: T1, Hos3; assay: HDAC inhibitor studies (competition with 7AC substrate, fluorescent assay); type: biochemical; details: for IC50: Hos3 (150 nM) with 7AC (75 mM) substrate; for Mode of Inhibition: Hos3, 7AC substrate, double-reciprocal plots, IC50 vs substrate concentration for TSA
Description: Characterization of the Mechanism of Inhibition. Inhibitor studies were conducted using the 7AC substrate and the fluorescent histone deacetylase activity assay.
Competition experiments were performed in HDAC assay buffer (20 mM Tris, pH 8.0, 500 mM NaCl, 1 mM MnCl2) to a final reaction volume of 1 ml. Trichostatin A was solubilized in 100% DMSO, yielding a final concentration of 2% DMSO in this reaction. […] The final DMSO concentration in these reactions was 1%. 7AC substrate and inhibitor were added in the appropriate concentrations to the assay buffer and the basal rate of hydrolysis was recorded. Hos3 enzyme (150 nM) was added after 90 seconds and the reaction was allowed to proceed for 600 seconds. Initial rate data was transformed into appropriate rates and dose response plots were generated. IC50 values were calculated using the program Kaleidagraph with equation 4: […]
where vi is the initial velocity in the presence of inhibitor, vo, is the initial velocity in the absence of inhibitor, and [I] is the concentration of inhibitor. Ki values were determined by Dixon plots […]. The modes of inhibition were determined by double-reciprocal or Lineweaver-Burk plots, where 1/v is plotted as a function of 1/[S], using the programs of Cleland.

Hos3 [5] = target: T1, Hos3; assay: as above; type: biochemical; details: Hos3 (150 nM), slope of Henderson plot
[6] = substrate: CC(=O)Oc1ccc([N+](=O)[O-])cc1; assay: UV-based histone deacetylase activity assay; type: biochemical, Saccharomyces cerevisiae; details: other: MBP-Hos3; UV at 410 nm
From the text: The substrates 7AC and ACC can also be effectively utilized in a UV assay. The substrate absorbs from 250-340 nm, while the product has a maximal absorbance at 375 nm. So substrate hydrolysis/product formation can be monitored by the increase in absorbance at 375 nm. […] Para-nitrophenylacetate can also be used to assay HDAC activity. Upon acetate hydrolysis, the para-nitrophenylacetate liberates the colored p-nitrophenol chromophore; this reaction can be monitored on the UV at 410 nm.
HDAC activity assays were performed in HDAC Assay Buffer to a final reaction volume of 1 ml in quartz cuvettes. UV/Vis spectrophotometer was used to monitor the rate of 7AC hydrolysis. The 7AC substrate absorbs from 250-340 nm, while the product, 7-hydroxycoumarin, has a maximal absorbance at 375 nm. Reactions were initiated with substrate and allowed to proceed for 300 seconds, while monitoring the increase in absorbance at 375 nm. Para-nitrophenylacetate was also used to assay HDAC activity. Upon acetate hydrolysis, the para-nitrophenylacetate liberated the colored p-nitrophenol chromophore; this reaction was monitored on the UV at 410 nm. Initial rates and utilization ratios were calculated as described above.

T2 sequence (Q92769 whole entry): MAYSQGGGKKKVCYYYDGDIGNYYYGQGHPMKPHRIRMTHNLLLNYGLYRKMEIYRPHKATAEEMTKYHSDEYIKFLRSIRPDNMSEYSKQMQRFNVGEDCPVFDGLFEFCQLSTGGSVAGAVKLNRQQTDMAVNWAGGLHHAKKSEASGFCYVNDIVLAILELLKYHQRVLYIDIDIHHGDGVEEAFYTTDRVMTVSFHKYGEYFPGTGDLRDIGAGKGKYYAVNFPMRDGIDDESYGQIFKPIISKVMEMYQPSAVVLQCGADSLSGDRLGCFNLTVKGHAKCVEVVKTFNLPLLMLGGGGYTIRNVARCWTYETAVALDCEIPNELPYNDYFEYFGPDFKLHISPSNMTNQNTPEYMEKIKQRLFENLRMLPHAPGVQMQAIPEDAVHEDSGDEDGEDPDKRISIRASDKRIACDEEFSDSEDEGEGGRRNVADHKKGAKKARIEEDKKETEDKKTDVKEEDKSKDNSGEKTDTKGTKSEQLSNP

Question: With `CC(=O)Oc1ccc2ccc(=O)oc2c1` [7AC, 7-Acetoxycoumarin] as the molecule, how does the “V/K (utilization ratio)” value (Hos3 [1]) read?
Answer: Its value is 0.00019122 s⁻¹.

Question: What about the “V/[Et]/K (utilization ratio normalized by enzyme concentration)” value (Hos3 [1]) of the same molecule?
Answer: Its value is 1274.8 M⁻¹ s⁻¹.

Question: What about the “V/K (utilization ratio)” value (HDLP) of the same molecule?
Answer: The value was 0.00020375 s⁻¹.

Question: What about the “V/[Et]/K (utilization ratio normalized by enzyme concentration)” value (HDLP) of the same molecule?
Answer: The value was 612.8 M⁻¹ s⁻¹.

Question: What about the “V/K (utilization ratio)” value (HDAC2) of the same molecule?
Answer: Its value is 1.2526e-05 s⁻¹.

Question: And the “V/[Et]/K (utilization ratio normalized by enzyme concentration)” value (HDAC2)?
Answer: Its value is 35.8 M⁻¹ s⁻¹.

Question: What about the “Background rate of hydrolysis” value [2] of the same molecule?
Answer: The value was “lower background rate of hydrolysis”.

Question: What about the solubility ([3]; aqueous buffer) of the same molecule?
Answer: Its solubility is no more than 1 mM.

Question: What does the source list for `CCCC(=O)[O-].[Na+]` [NaB, sodium butyrate]?
Answer: IC50 (Hos3 [4]): 13.4 mM; Ki (Hos3 [4]; Hos3 (150 nM), 7AC substrate, Dixon plot): 12 mM; Mode of Inhibition (Hos3 [4]): Mixed-; Mode of Inhibition (Hos3 [4]; listed as Sodium butyrate): mixed-type inhibition; Mode of Inhibition (Hos3 [4]; listed as sodium butyrate): mixed-competitive inhibitor

Question: Which Solubility limitation [3] does the source give for `CC(=O)Oc1ccc([N+](=O)[O-])cc1` [Para-nitrophenylacetate, 4-nitrophenylacetate] here?
Answer: The Solubility limitation was “subject to solubility limitations that prevent complete saturation of the enzyme”.

Question: With `CC(/C=C/C(=O)NO)=C\[C@@H](C)C(=O)c1ccc(N(C)C)cc1` [TSA, Trichostatin A] as the molecule, how does the IC50 (Hos3 [4]) read?
Answer: The IC50 was 0.000127 mM.

Question: And the “Mode of Inhibition” value (Hos3 [4])?
Answer: The value was “Tight-binding”.

Question: And the “Mode of Inhibition” value (Hos3 [4]; listed as Trichostatin A)?
Answer: The value was “tight-binding competitive inhibitor; also recorded: tight-binding, competitive inhibitor; also recorded: tight binding competitive inhibition”.

Question: And the Ki (Hos3 [5])?
Answer: The Ki was 81 nM.

B1: Hos3 (Saccharomyces cerevisiae S288C) (protein)
chain: T1 sequence (Q02959 1-697)
notes: made in house; host or cells: E. coli BL21(DE3)
Question: With B1 as the molecule, how does the Km [6] read?
Answer: Its Km is 8.3 mM.
